The EC50 is the concentration that produces a half-maximal response. A word on the half-life: it is how long it takes for the measured level to halve. The term IC50 denotes the concentration at which inhibition is half-maximal. Read a low IC50 as inhibition by little substance.

The subject of data set [1] is CHRC5 cell line. As to the kind of experiment: Compound was tested for its cytotoxic effect on CHRC5 Chinese hamster cells at a dose of 1 uM; not cytotoxic. The data set is classed as functional, cell-based. Conditions: Cricetulus griseus.
The subject of data set [2] is CHRC5 cell line. Description: Tested for in vitro proliferation and viability of multidrug resistant CHRC5 Chinese hamster cells in the presence and absence of doxorubicin in a modified MTT assay. Type of data set: functional, cell-based, Cricetulus griseus. A general note: Tetrazolium dyes change colour on reduction, which living cells bring about.
The nature of data set [3]: Half-life at pH 2.0 and 37 degree C. Type of data set: ADME. The following applies: buffer.
Data set [4] can be described thus: Binding affinity to glycoprotein p was tested.

As to `OC(COc1cccc2ncccc12)CN1CCN(C2c3ccccc3C3C(c4ccccc42)C3(F)F)CC1` (stereo in doubt; form 1) [listing 1 of 2 here], the Activity result with CHRC5 cell line [1] is “Non-toxic”.

In the data set on CHRC5 cell line [2] (Cricetulus griseus, CHRC5), `OC(COc1cccc2ncccc12)CN1CCN(C2c3ccccc3CCc3ccccc32)CC1` (stereo not drawn) had an EC50 of 65 nM.

In turn, `OC(COc1cccc2ncccc12)CN1CCN(C2c3ccccc3C3C(c4ccccc42)C3(F)F)CC1` (stereo in doubt; form 4) came in with an EC50 in the data set with CHRC5 cell line [2] (chrc5) of 200 nM.

With `COc1ccc(CCN(C)CCCC(C#N)(c2ccc(OC)c(OC)c2)C(C)C)cc1OC` (stereo not drawn), the midpoint of the response in the data set on CHRC5 cell line [2] (Cricetulus griseus, CHRC5), the EC50, lay at 1200 nM.

Consider `OC(COc1cccc2ncccc12)CN1CCN(C2c3ccccc3C3C(c4ccccc42)C3(Cl)Cl)CC1` (racemic), for which, in the data set on CHRC5 cell line [2] (chrc5), it took 70 nM to reach a half-maximal effect (EC50).

In the data set on CHRC5 cell line [2] (chrc5), `OC(COc1cccc2ncccc12)CN1CCN(C2c3ccccc3C3C(c4ccccc42)C3(F)F)CC1` (stereo in doubt; form 2) [listing 1 of 2 here] displayed an EC50 of 60 nM.

In turn, `OC(COc1cccc2ncccc12)CN1CCN(C2c3ccccc3C3C(c4ccccc42)C3(F)F)CC1` (single isomer, unassigned) displayed a concentration for a half-maximal effect (EC50) in the data set on CHRC5 cell line [2] (chrc5) of 190 nM.

As to `OC(COc1cccc2ncccc12)CN1CCN(C2c3ccccc3C3C(c4ccccc42)C3(Cl)Cl)CC1` (stereo in doubt; form 1), the half-life in data set [3] was greater than 72 h. Further, a half-maximal effect in the data set with CHRC5 cell line [2] (Cricetulus griseus, CHRC5) (EC50) was put at 100 nM.

Turning to `OC(COc1cccc2ncccc12)CN1CCN(C2c3ccccc3C3C(c4ccccc42)C3(F)F)CC1` (stereo in doubt; form 2) [listing 2 of 2 here], the Activity entry with CHRC5 cell line [1] is “Non-toxic”.

In turn, `OC(COc1cccc2ncccc12)CN1CCN(C2c3ccccc3C3C(c4ccccc42)C3(F)F)CC1` (stereo in doubt; form 1) [listing 2 of 2 here] displayed a half-life in data set [3] greater than 72 h. In the data set with CHRC5 cell line [2] (chrc5), this compound yielded an EC50 of 50 nM.

Consider `OC(COc1cccc2ncccc12)CN1CCN(C2c3ccccc3C3C(c4ccccc42)C3(F)F)CC1` (stereo in doubt; form 5) [listing 1 of 2 here], for which the IC50 in data set [4] is 40 nM. For the same compound, a half-maximal effect in the data set on CHRC5 cell line [2] (chrc5) (EC50) was put at 20.7 nM.

As for `OC(COc1cccc2ncccc12)CN1CCN(C2c3ccccc3C3C(c4ccccc42)C3(F)F)CC1` (stereo in doubt; form 3), in the data set with CHRC5 cell line [2] (chrc5), it took 180 nM to reach a half-maximal effect (EC50).

`OC(COc1cccc2ncccc12)CN1CCN(C2c3ccccc3C3CC3c3ccccc32)CC1` (stereo not drawn) came in with an EC50 with CHRC5 cell line [2] (Cricetulus griseus, CHRC5) of 40 nM.

In the case of `OC(COc1cccc2ncccc12)CN1CCN(C2c3ccccc3C3C(c4ccccc42)C3(F)F)CC1` (stereo in doubt; form 5) [listing 2 of 2 here], in the data set with CHRC5 cell line [1], the Activity result is “Non-toxic”.

In the data set with CHRC5 cell line [2] (chrc5), `OC(COc1cccc2ncccc12)CN1CCN(C2c3ccccc3C3C(c4ccccc42)C3(Cl)Cl)CC1` (stereo in doubt; form 2) registered an EC50 of 55 nM. This lies in the double-digit nanomolar range.
